These results are taken from US8609147B2, “Use of deuterium oxide for treatment of herpes virus-based diseases of the skin” (D2 Bioscience Group Ltd., priority 2007, dated 2013).

The test system of this assay is HSV-1. Briefly: Efficacy in a cell culture test: HSV-1 infected human keratinocyte primary cultures, virus count by transmission electron microscopy. Format: cell-based. The following applies: cell culture medium containing 35 wt % D2O; 3 days after infection with HSV-1; 20 keratinocyte cells evaluated. As for the experimental part:
After a closed monolayer had formed in the cell culture dish and after desmosomes had developed, human keratinocyte primary cultures produced according to H. M. Reinl et al. (J. Invest. Dermatol. 1995; 105(2):291-5) were incubated with cell culture medium additionally containing 35 wt % D2O (sample) and/or H2O (controls). On the day of incubation, the sample and controls were infected with HSV-1. The infection was accomplished by adding the virus to the cell culture medium (10^7 viruses per cell culture dish in 1 mL cell culture medium). After 3 days (after infection), the sample and control groups were tested for the average number of viral particles per cell. The virus count was performed using a transmission electron microscope according to standard fixation and staining methods (glutaraldehyde and osmium tetroxide). In each case, 20 randomly selected keratinocyte cells from the sample group and the control group were evaluated with regard to the viral particles contained in them.

Take `[2H]O[2H]` [D2O, deuterium oxide]: the “average virus count (viral particles per cell)” value was determined as 10±4.
